Seven compounds from article PMC6550523, “De Novo Emergence of Peptides That Confer Antibiotic Resistance” (mBio, 2019) can be followed below.

Series [1] deals with bovine cytochrome c oxidase (CytcO) reconstituted into proteoliposomes. The series is classed as biochemical.
Protocol: When ionophores (valinomycin, a K^+ ionophore, and/or FCCP, a protonophore similar to CCCP) are added, this gradient is partly or fully dissipated, and the so-called uncoupled rate is reached. […] Thus, we determined the RCRs after adding the Arp-1 and Arp1-L11K peptides, and as positive controls we added valinomycin and FCCP in addition to the peptides (Fig. 4B and Fig. S4C).
(A) CytcO reduces O2 to H2O, using electrons from reduced cytochrome (cyt.) c and protons from inside the liposomes. In addition, protons are pumped and a proton electrochemical gradient (positive outside) across the membrane is established. Valinomycin, a K^+ ionophore, can dissipate the charge component and FCCP, a protonophore, both components of this gradient. (B) A typical oxygen consumption experiment; the baseline with only ascorbate, TMPD, and cyt. c was first measured. Proteoliposomes then were added, initiating oxygen consumption by CytcO and build-up of a membrane potential. The coupled rate is the slope after liposome addition subtracting the baseline. Peptides (Arp1 or L11K), valinomycin, and FCCP were added, in this order, and the rates measured. RCRs were determined by dividing the different rates by the initial coupled rate. […]
CytcO activity was measured using a Clark-type oxygen electrode (Hansatech) at 25°C. […] Oxygen consumption rates and RCRs were measured essentially as described in reference [43].
In series [2] the test system is E. coli. As to the kind of experiment: Toxicity of peptides when expressed. To be noted: expressed in E. coli from pBAD vector. It counts as cell-based, Escherichia coli.
Series [3] has as its system Escherichia coli K-12 strain BW25113. As to the kind of experiment: MIC determination (Etest) in strains expressing the peptides. The series is classed as cell-based. To be noted: for Increased aminoglycoside resistance on overexpression of endogenous E. coli peptides: TisB from a pBAD promoter, arabinose 0.0125 to 0.2%, at viable expression levels. As for the experimental part:
Most strains used in this study were derived from Escherichia coli K-12 BW25113 (designated E. coli throughout the text) and are listed in Table S1 in the supplemental material. If not indicated otherwise, Muller Hinton broth (MHB) (Becton, Dickinson) was used for growth in liquid cultures and Muller Hinton agar (MHA; MHB supplemented with 15 g/liter agar) for growth on plates. To maintain the plasmid pRD2 or pBAD18, the growth media were supplemented with 100 mg/liter ampicillin or 15 mg/liter chloramphenicol, respectively. Induction of expression was performed in the presence of 1 mM IPTG (pRD2) or 0.2% arabinose (pBAD18). For counterselection of sacB, no-salt lysogeny agar plates (10 g/liter tryptone, 5 g/liter yeast extract, 15 g/liter agar, and 50 g/liter sucrose) were used. Recovery after transformation was done in SOC medium (20 g/liter tryptone, 5 g/liter yeast extract, 0.5 g/liter NaCl, 10 mM MgCl2, […], and 4 g/liter glucose). For washing and dilution of cells, phosphate-buffered saline (PBS; 8 g/liter NaCl, 0.2 g/liter KCl, 1.44 g/liter Na2HPO4, and 0.24 g/liter KH2PO4) was used.
MICs were determined using Etest strips (bioMérieux). Overnight cultures of the strains of interest were diluted 1:20 in PBS and spread on an MHA plate containing 100 mg/liter ampicillin and 1 mM IPTG where necessary with a cotton swab. Etest strips were applied in the middle of the plates and incubated at 37°C overnight. MIC values were scored after 20 h of incubation. Colistin MICs were determined using microdilution. For this, bacteria were grown on MHA with 100 mg/liter ampicillin, and 1 to 2 colonies were dissolved in 1 ml PBS to approximately 0.5 McFarland. The cell suspension was diluted 1:100 in Muller Hinton 2 broth (cation adjusted), and 50 μl was mixed with 50 μl Muller Hinton 2 broth containing 0.4% arabinose, 30 mg/liter chloramphenicol, and a 2-fold dilution series of colistin. The assay was performed in round-bottomed 96-well plates at 37°C overnight in a stationary position. The MIC was determined as the concentration where no growth could be observed and is based on a minimum of two biological replicates. If the determined values of the replicates were not identical, a third replicate was performed.
The site saturation mutagenesis was performed with GeneArt (ThermoFisher) based on the sequence of Arp1, where each position in the wild-type sequence was replaced by the amino acids lysine (K), glutamic acid (E), proline (P), tryptophan (W), and serine (S). All variants were subcloned into our modified expression vector, pBAD18-RND, using the AgeI/HindIII cloning sites, transformed into E. coli, and delivered as a total pool glycerol stock. […] The plasmid variants were determined by Sanger sequencing (Eurofins, Germany). […]

The test system of series [4] is E. coli membrane potential. Kind of series: Membrane potential assay with DiBAC4(3). The series is classed as cell-based, Escherichia coli. To be noted: 100 μM CCCP, 30 min, room temperature; positive control. As for the experimental part: Bacteria were grown overnight in MHB supplemented with 15 mg/liter chloramphenicol at 37°C. The following day all cultures were diluted 1:100 in MHB supplemented with 15 mg/liter chloramphenicol and grown to an OD600 of approximately 0.3 (time point 0). At the target OD600, IPTG was added to each culture to a final concentration of 1 mM, and cells were incubated for another 60 min to allow expression of proteins (time point 1). At both time points, approximately 10^6 cells were transferred to 1 ml PBS with 10 mg/liter DiBAC4(3) (D8189; Sigma-Aldrich) with or without 100 μM carbonyl cyanide 3-chlorophenylhydrazone (CCCP; Sigma-Aldrich) and incubated for 30 min at room temperature in the dark. Fluorescence was measured with a MACSQuant VYB (Miltenyi Biotec) using the GFP/FITC (green fluorescent protein/fluorescein isothiocyanate) channel and a threshold of 15,000 gated cells. The raw data were analyzed and visualized with FlowJo (BD Bioscience).

Read-outs that look alike come from different tables or passages of the source.

For the compound `N#CC(C#N)=NNc1ccc(OC(F)(F)F)cc1` [FCCP], the “Effect of ionophore added in addition to Arp1 peptide” value in series [1] was “fully collapsed the gradient”. For “TisB: endogenous E. coli K-12 29-mer toxin of a toxin-antitoxin system (MNLVDIAILILKLIVAALQLLDAVLKYLK; UniProt A5A627 1-29, looked up)”, the Toxicity when expressed result in series [2] is recorded as “lethal”. In addition, in series [3], the “Increased aminoglycoside resistance on overexpression of endogenous E. coli peptides” value (“Increased aminoglycoside resistance” below) is recorded as “no increased resistance”. On to “carbonyl cyanide m-chlorophenyl hydrazine [CCCP]”, for which, in series [4], the “Membrane potential, DiBAC4(3) fluorescence” value is “clear shift to higher fluorescence”. Turning to `CC(C)[C@@H]1NC(=O)[C@H](C)OC(=O)[C@@H](C(C)C)NC(=O)[C@@H](C(C)C)OC(=O)[C@H](C(C)C)NC(=O)[C@H](C)OC(=O)[C@@H](C(C)C)NC(=O)[C@@H](C(C)C)OC(=O)[C@H](C(C)C)NC(=O)[C@H](C)OC(=O)[C@@H](C(C)C)NC(=O)[C@@H](C(C)C)OC1=O` [Valinomycin, valinomycin], the “Effect of ionophore added in addition to Arp1 peptide” value in series [1] (valinomycin 6 μM, then FCCP 21 μM, positive controls) is “further rate increase”. With “LdrD: endogenous E. coli toxin peptide similar to Arp1-3 in size and hydrophobicity (MTFAELGMAFWHDLAAPVIAGILASMIVNWLNKRK; UniProt Q6BF25 1-35, looked up)”, the “Increased aminoglycoside resistance” value in series [3] is reported as “no increased resistance”. In the case of “IbsC: endogenous E. coli toxin peptide similar to Arp1-3 in size and hydrophobicity (MMRLVIILIVLLLISFSAY; UniProt C1P615 1-19, looked up)”, the “Increased aminoglycoside resistance” value in series [3] was “no increased resistance”. Regarding `NC[C@H]1O[C@H](O[C@H]2[C@H](O)[C@@H](O[C@H]3O[C@H](CO)[C@@H](O)[C@H](N)[C@H]3O)[C@H](N)C[C@@H]2N)[C@H](O)[C@@H](O)[C@@H]1O` [kanamycin], the “Kanamycin MIC of the empty vector control strain” value in series [3] (E. coli BW25113 with empty vector, Etest, 37°C, 20 h) worked out at 0.75 µg/mL.
